Data as given in US20250163056A1, “NONMUSCLE MYOSIN II INHIBITORS” (The University of Florida Research Foundation, Inc., priority 2018, published 2025).

Columns and labels:
[1] = molecular target: Rabbit skeletal myosin; assay: Skeletal muscle myosin II actin-activated ATPase assay; assay type: biochemical; settings: 20 nM skeletal muscle myosin II; read-out: SKMMII KI
Description: (§1) The cardiac muscle myosin II actin-activated ATPase assay is a biochemical assay. Specifically, it is an NADH (nicotinamide adenine dinucleotide)-coupled ATPase assay that relies on NADH fluorescence as a readout. Cardiac myosin is a mechanochemical energy transducer that hydrolyzes ATP to generate force in the presence of its activator, F-actin. The resulting ADP is regenerated to ATP by pyruvate kinase (PK) that transforms one molecule of phosphoenolpyruvate (PEP) to pyruvate in parallel. Subsequently, pyruvate is reduced to lactate by lactate dehydrogenase (LDH) that, in turn, oxidizes one molecule of NADH to NAD. Therefore, the decrease in NADH concentration as a function of time equals the ATP hydrolysis rate. Bovine cardiac myosin is obtained from a commercial source, Cytoskeleton. PK, LDH, ATP, PEP, and NADH are obtained from Sigma. F-actin is prepared in house from Rabbit Muscle Acetone Powder. The assay is run at 25° C. in 384 well black-wall polystyrene microplates with a total volume of 20 μl per well. NADH fluorescence is monitored for 30 minutes with an EnVision Multimode Plate Reader. The slope of the fluorescence response, which is proportional to the reaction rate, is determined by simple linear regression. Final assay conditions are 300 nM cardiac myosin, 10 μM actin, 40 U/ml LDH, 200 U/ml PK, 220 μM NADH, 1 mM PEP, 1 mM ATP in a buffer containing 10 mM 3-(N-morpholino)propanesulfonic acid (pH=7.0), 2 mM MgCl2, 0.15 mM ethylene glycol-bis(p-aminoethyl ether)-N,N,N′,N′-tetraacetic acid, 0.1 mg/mL bovine serum albumin, 0.5% (V/V) dimethyl sulfoxide (DMSO) and 1 mM dithiothreitol. Prior to testing the inhibitory activity of the compounds, a two-fold dilution series starting at 10 mM compound concentration is prepared in DMSO. Subsequently, 100 nl is transferred to each well of the measuring plate containing a mixture of myosin, LDH and PK. The enzymatic reaction is started with the addition of a mixture containing ATP, PEP, NADH and actin. The highest final compound concentration is 50 uM. 20 μM para-aminoblebbistatin in 0.5% DMSO serves as the positive control and 0.5% DMSO alone is the negative control. Reaction rates are determined by using the fluorescence responses of a dilution series of NADH included in all plates and plotted as a function of inhibitor concentration. All measurements are carried out in triplicate. Inhibitory constants are determined by fitting the 16 point dose-response data to a quadratic equation corresponding to a simple one-to-one binding model.
The skeletal muscle myosin II actin-activated ATPase assay is performed the same as for cardiac muscle myosin II with the following exceptions: Rabbit skeletal myosin is obtained from Cytoskeleton and the final assay conditions contain 20 nM skeletal muscle myosin II.

[2] = molecular target: Bovine cardiac myosin (Bos taurus (Bovine), UniProt Q9BE39); assay: Cardiac muscle myosin II actin-activated ATPase assay (NADH-coupled); assay type: biochemical; design: key to Ratio CMMII:NMII Ki/EC50: NMII-sel: no Ki value for cardiac myosin II could be determined; the compounds had no detectable inhibitory properties versus the cardiac myosin II; settings: for Ki: 300 nM cardiac myosin, 10 μM actin, 25° C., read-out: CMMII KI; for Ratio CMMII:NMII Ki/EC50: cardiac myosin II Ki over nonmuscle myosin II EC50
Sequence of Bovine cardiac myosin (Q9BE39 whole entry): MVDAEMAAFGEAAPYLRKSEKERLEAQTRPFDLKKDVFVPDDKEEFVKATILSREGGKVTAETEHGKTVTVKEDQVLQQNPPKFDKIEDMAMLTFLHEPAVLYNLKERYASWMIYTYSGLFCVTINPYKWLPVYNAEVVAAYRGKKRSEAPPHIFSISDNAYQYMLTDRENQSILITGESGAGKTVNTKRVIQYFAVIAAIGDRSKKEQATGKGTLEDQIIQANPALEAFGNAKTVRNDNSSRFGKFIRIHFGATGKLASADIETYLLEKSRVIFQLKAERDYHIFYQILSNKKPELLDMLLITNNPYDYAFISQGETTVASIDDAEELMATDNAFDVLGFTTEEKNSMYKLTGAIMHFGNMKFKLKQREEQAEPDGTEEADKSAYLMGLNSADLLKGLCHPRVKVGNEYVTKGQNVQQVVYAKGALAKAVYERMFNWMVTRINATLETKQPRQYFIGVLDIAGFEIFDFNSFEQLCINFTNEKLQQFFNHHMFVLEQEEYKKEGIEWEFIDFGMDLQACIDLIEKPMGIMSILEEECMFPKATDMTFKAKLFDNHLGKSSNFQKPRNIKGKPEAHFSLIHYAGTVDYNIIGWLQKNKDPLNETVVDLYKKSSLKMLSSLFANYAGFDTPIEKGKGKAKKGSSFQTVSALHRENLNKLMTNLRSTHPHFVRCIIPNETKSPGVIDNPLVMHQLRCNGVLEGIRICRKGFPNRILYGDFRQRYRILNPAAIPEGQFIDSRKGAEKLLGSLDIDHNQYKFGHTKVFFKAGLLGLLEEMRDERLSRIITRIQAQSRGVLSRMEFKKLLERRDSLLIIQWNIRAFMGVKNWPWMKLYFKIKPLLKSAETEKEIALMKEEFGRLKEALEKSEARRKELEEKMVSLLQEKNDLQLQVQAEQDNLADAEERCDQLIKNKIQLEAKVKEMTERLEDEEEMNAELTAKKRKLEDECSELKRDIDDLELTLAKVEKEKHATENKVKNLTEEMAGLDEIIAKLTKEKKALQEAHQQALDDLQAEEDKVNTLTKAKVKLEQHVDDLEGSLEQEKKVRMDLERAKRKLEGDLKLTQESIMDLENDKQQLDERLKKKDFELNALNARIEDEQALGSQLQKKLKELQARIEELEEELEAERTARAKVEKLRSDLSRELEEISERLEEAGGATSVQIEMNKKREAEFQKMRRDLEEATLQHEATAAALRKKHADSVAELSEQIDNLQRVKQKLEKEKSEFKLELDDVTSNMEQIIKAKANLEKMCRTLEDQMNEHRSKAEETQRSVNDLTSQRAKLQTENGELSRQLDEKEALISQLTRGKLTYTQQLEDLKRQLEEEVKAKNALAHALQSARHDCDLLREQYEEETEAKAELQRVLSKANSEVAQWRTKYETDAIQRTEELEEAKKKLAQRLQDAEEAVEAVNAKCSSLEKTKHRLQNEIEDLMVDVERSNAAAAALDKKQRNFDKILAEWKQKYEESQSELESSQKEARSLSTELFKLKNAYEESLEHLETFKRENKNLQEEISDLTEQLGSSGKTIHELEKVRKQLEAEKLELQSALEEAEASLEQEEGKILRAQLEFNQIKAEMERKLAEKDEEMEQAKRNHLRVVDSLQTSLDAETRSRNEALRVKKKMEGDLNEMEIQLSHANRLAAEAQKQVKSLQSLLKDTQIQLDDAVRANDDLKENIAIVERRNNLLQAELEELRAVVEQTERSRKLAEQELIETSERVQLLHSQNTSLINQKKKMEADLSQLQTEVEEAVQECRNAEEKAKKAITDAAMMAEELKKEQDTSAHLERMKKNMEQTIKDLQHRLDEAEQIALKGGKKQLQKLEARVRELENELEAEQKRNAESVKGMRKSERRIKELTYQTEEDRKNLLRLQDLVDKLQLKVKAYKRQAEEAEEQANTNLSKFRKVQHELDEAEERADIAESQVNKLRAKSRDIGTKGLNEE
Sequence of Bovine cardiac myosin (P85100 whole entry partner): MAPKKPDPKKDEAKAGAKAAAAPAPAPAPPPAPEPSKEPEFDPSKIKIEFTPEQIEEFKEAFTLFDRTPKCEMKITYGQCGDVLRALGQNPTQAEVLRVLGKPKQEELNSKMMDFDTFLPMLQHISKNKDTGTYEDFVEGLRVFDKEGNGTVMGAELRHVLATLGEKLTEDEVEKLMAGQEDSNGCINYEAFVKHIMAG
Sequence of Bovine cardiac myosin (Q3SZE5 whole entry partner): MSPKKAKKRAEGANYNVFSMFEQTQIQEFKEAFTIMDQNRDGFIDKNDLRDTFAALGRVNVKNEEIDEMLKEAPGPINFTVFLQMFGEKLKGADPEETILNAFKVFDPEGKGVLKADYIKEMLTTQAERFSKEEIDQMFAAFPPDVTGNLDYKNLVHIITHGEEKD
Description: as §1

[3] = Photostability, percentage remaining undegraded under illumination or in the dark; settings: for Photostability 4 hours: percentage remaining undegraded after 4 hours illumination; for Photostability 24 hours: percentage remaining undegraded after 24 hours illumination; for Photostability Dark (24 h): percentage remaining undegraded in the dark

Structure (SMILES) | Ki [1] | Ki [2] | Ratio CMMII:NMII Ki/EC50 [2] | Photostability 4 hours [3] | Photostability 24 hours [3] | Photostability Dark (24 h) [3]
COc1cccc(N2CC[C@@]3(O)C(=O)c4cc(C)ccc4N=C23)c1 [BPN-0025044] | 7 µM | 28 µM | 5.4 | 90.3% | 12.1% | >99%
O=C1c2cc(C(F)(F)F)ccc2N=C2N(c3ccccc3)CC[C@@]12O [BPN-0025110] | 8 µM | 22 µM | 6.9 | 6.6% | 2.6% | >99%
Cc1ccc2c(c1)C(=O)[C@]1(O)CCN(c3cccc(Br)c3)C1=N2 [BPN-0025240] | 35 µM | 400 µM | 39.2 | 93.0% | 28.6% | 94.7%
Cc1ccc2c(c1)C(=O)[C@]1(O)CCN(c3ccc(C)c(Cl)c3)C1=N2 [BPN-0025254] | 7.7 µM | – | NMII-sel | 92.5% | 39.4% | >99%
Cc1ccc2c(c1)C(=O)[C@]1(O)CCN(c3ccc(C)c(C)c3)C1=N2 [BPN-0025903] | 11 µM | – | NMII-sel | 39.8% | 7.5% | 98.3%
COc1cc(N2CC[C@@]3(O)C(=O)c4cc(C)ccc4N=C23)ccn1 [BPN-0025919] | 1.8 µM | 18 µM | 4.6 | – | – | –
Cc1ccc2c(c1)C(=O)[C@@]1(O)C(=N2)N(c2ccccc2)CC1(C)C [BPN-0026282] | – | – | NMII-sel | 64.0% | 7.0% | >99%
Cc1ccc2c(c1)C(=O)[C@]1(O)CCN(c3ccc4occc4c3)C1=N2 [BPN-0026283] | 5 µM | – | NMII-sel | 39.4% | 10.8% | 92.0%
Cc1ccc2c(c1)C(=O)[C@]1(O)CCN(c3ccc4ccoc4c3)C1=N2 [BPN-0026285] | 0.9 µM | 9.1 µM | 5.7 | 51.9% | 8.2% | 94.7%
Cc1ccc2c(c1)C(=O)[C@]1(O)CCN(c3ccc(C#N)c(C)c3)C1=N2 [BPN-0026324] | 3.5 µM | 30 µM | 13.6 | 98.5% | 90.4% | >99%
Cc1ccc2c(c1)C(=O)[C@]1(O)CCN(c3ccc(Cl)c(C)c3)C1=N2 [BPN-0026325] | 13 µM | – | NMII-sel | 89.0% | 14.0% | 97.8%
Cc1cc2c(cc1F)C(=O)[C@]1(O)CCN(c3ccccc3)C1=N2 [BPN-0026387] | 1.2 µM | 13 µM | 5.2 | 85.2% | 18.0% | 93.5%
COc1ccc(N2CC[C@@]3(O)C(=O)c4cc(C(F)(F)F)ccc4N=C23)cc1 [BPN-0026393] | 1.7 µM | 11 µM | 3.2 | 97.9% | 75.0% | >99%
Cc1ccc2c(c1)C(=O)[C@]1(O)CCN(c3ccc(C#N)c(Cl)c3)C1=N2 [BPN-0026394] | 4.8 µM | – | NMII-sel | >99% | 98.7% | >99%
O=C1c2cc(Cl)ccc2NC2N(c3ccc4ccoc4c3)CC[C@@]12O (some centres unmarked) [BPN-0026401] | 3.3 µM | 50 µM | 16.7 | 81.2% | 9.6% | 97.7%
Cc1ncc(N2CC[C@@]3(O)C(=O)c4cc(C(F)(F)F)ccc4N=C23)s1 [BPN-0026404] | 3.6 µM | 23 µM | 7.0 | – | – | –
Cn1cc(N2CC[C@@]3(O)C(=O)c4cc(C(F)(F)F)ccc4N=C23)cn1 [BPN-0026413] | 33 µM | 110 µM | 3.1 | 94.3% | 82.2% | 97.3%
Cc1cc(N2CC[C@@]3(O)C(=O)c4cc(Cl)ccc4N=C23)ccc1C#N [BPN-0026457] | 15 µM | – | NMII-sel | 98.6% | 77.1% | >99%
O=C1c2cc(C(F)(F)F)ccc2N=C2N(c3ccc4ccoc4c3)CC[C@@]12O [BPN-0026495] | 20 µM | – | NMII-sel | 80.9% | 15.9% | 93.4%
COc1cccc(N2CC[C@@]3(O)C(=O)c4cc(C)c(C)cc4N=C23)c1 [BPN-0026496] | 15 µM | 83 µM | 31.9 | 41.7% | 3.5% | 97.9%
COc1cccc(N2CC[C@@]3(O)C(=O)c4cc(C)c(C)cc4N=C23)c1 [BPN-0026497] | 9.8 µM | 33 µM | 15.7 | 82.7% | 6.1% | 97.5%
Cc1cc2c(cc1C)C(=O)[C@]1(O)CCN(c3ccc(C#N)cc3)C1=N2 [BPN-0026499] | 0.18 µM | 5.7 µM | 12.4 | 97.7% | 84.9% | >99%
Cc1cc2c(cc1C)C(=O)[C@]1(O)CCN(c3cccc(Cl)c3)C1=N2 [BPN-0026500] | 23 µM | – | NMII-sel | 92.2% | 22.8% | >99%
Cc1cc2c(cc1F)C(=O)[C@]1(O)CCN(c3ccc(C)c(Cl)c3)C1=N2 [BPN-0026606] | – | – | NMII-sel | 85.9% | 4.1% | 95.5%
Cc1ccc(N2CC[C@@]3(O)C(=O)c4cc(Cl)ccc4N=C23)cc1 [BPN-0026609] | 0.43 µM | 5.5 µM | 3.7 | – | – | –
Cc1ccc(N2CC[C@@]3(O)C(=O)c4cc(C)c(C(F)(F)F)cc4N=C23)cc1Cl [BPN-0026786] | – | – | NMII-sel | 87.8% | 66.6% | 96.0%
Cc1cccc(N2CC[C@@]3(O)C(=O)c4cc(C)c(C(F)(F)F)cc4N=C23)c1 [BPN-0026847] | – | – | NMII-sel | 99.0% | 91.8% | >99%
Cc1sc2c(c1C)C(=O)[C@]1(O)CCN(c3cccc(Br)c3)C1=N2 [BPN-0026853] | – | – | NMII-sel | 91.2% | 88.2% | 90.2%
O=C1c2cc(C(F)(F)F)ccc2N=C2N(c3ccc4ncsc4c3)CC[C@@]12O [BPN-0027219] | – | – | NMII-sel | 46.2% | 3.8% | 98.3%
O=C1c2c(sc3c2CCCC3)N=C2N(c3ccc4ncccc4c3)CC[C@@]12O [BPN-0027240] | – | – | NMII-sel | 94.1% | 74.6% | 98.0%
